Patent US20180360972A1, “THERAPEUTIC COMPOUNDS” (REGENTS OF THE UNIVERSITY OF MINNESOTA, priority 2017, published 2018)
Entries after “also recorded” stand apart in the source; their conditions may differ.

Experiments:
[1] = target: T1, hMC4R (Homo sapiens, UniProt P32245); assay: AlphaScreen cAMP functional bioassay, hMC4R; format: cell-based; details: HEK293 cells stably expressing hMC4R
T1 construct: Flag; expressed in transfected cells
Procedure: Upon agonist stimulation, melanocortin receptors are known to signal through a Gαs-protein mediated signaling pathway that results in intracellular cAMP accumulation.
Stable populations were selected for using G418 selection (0.7-1.0 mg/mL) and used in bioassays unless indicated otherwise. In vitro experimental ligands were dissolved to a 10^−2 M stock in DMSO and stored at −20° C. Subsequent dilutions were performed in each assay's specific buffer to achieve the final concentration in the well. The ligands were assayed as TFA salts.
AlphaScreen cAMP Functional Bioassay
The AlphaScreen® assay was performed as described by manufacturer.
Cells were removed from plates using Gibco® Versene solution and pelleted by centrifugation (Sorvall Super T21 high speed centrifuge, swinging bucket rotor) at 800 rpm for five minutes. […] A 10 μL aliquot of cell suspension was counted manually using a hemocytometer after addition of Trypan blue dye (BioRad). Cells were again pelleted by centrifugation, and DPBS was gently aspirated. The pelleted cells were then resuspended in a solution of freshly made stimulation buffer (Hank's Balanced Salt Solution [HBSS 10× [−] sodium bicarbonate] and [−] phenol red, Gibco®], 0.5 mM isobutylmethylxanthine [IBMX], 5 mM HEPES buffer solution [1M, Gibco®], 0.1% bovine serum albumin [BSA] in Milli-Q water, pH=7.4) and anti-cAMP acceptor beads (1.0 unit per well, AlphaScreen®). […] The cells were then stimulated with ligand diluted in stimulation buffer to achieve their final concentrations in the well ranging from 10^−13 to 10^−4 M. The stimulated plates were incubated in a dark laboratory drawer at room temperature for two hours.
Meanwhile, a biotinylated cAMP/streptavidin donor bead working solution was made by adding biotinylated cAMP (1 Unit/well, AlphaScreen®) and streptavidin donor beads (1 Unit/well, AlphaScreen®) to a lysis buffer (10% Tween-20, 5 mM HEPES buffer solution [1M, Gibco®], 0.1% bovine serum albumin [BSA] in Milli-Q water, pH=7.4). After the two hour stimulation, the biotinylated cAMP/Streptavidin donor bead working solution was added to each well under green light and mixed well by pipetting up and down. The cells were incubated for another two hours at room temperature in a dark drawer at room temperature. The plate was then read on an EnSpire™ Alpha plate reader using a pre-normalized assay protocol set by the manufacturer. Assays were performed with duplicate data points on each plate and repeated in at least three independent experiments.
Dose response curves were analyzed using the PRISM program (v4.0; GraphPad Inc.).

[2] = tested on: wild type mice; assay: ICV administration, conventional cages, wild type mice; format: in vivo
Procedure: (§1) All experiments were performed in accordance with the Institutional Animal Care and Use Committee (IACUC) at the University of Minnesota. Female and male littermates with mixed background from C57BL/6J and 129/Sv inbred strains were 8 weeks old at the time of surgeries. Mice were individually housed after surgeries and for the remainder of the experiment. Mice were maintained on a 12 hr light/dark cycle (Lights off was at 11:59 AM) in a temperature controlled room (23-25° C.). In the nocturnal feeding paradigm, mice had free access to normal chow (Harlan Teklad 2018 Diet: 18.6% crude protein, 6.2% crude fat, 3.5% crude fiber, with energy density of 3.1 kcal/g). […] Mice had free access to tap water throughout all the experiments. The cannula placement validation studies and conventional cage studies were performed in standard mouse polycarbonate conventional cages provided by University of Minnesota's Research Animal Resources (RAR). Weekly cage changes were conducted by lab research staff.
(§2) Mice were anesthetize with a mixture of ketamine (100 mg/kg) and xylazine (5 mg/kg) and were positioned in a stereotaxic apparatus (David Kopf Instruments). A 26-gauge cannula (Cat# 81C315GS4SPC; PlasticsOne, Roanoke, Va.) was inserted in the lateral cerebral ventricle at the coordinates 1.0 mm lateral and 0.46 mm posterior to bregma and 2.3 mm ventral to the skull (Franklin, K. B. J. & Paxinos, G. The Mouse Brain in Stereotaxic Coordinates. (Academic Press, 1997)).
Each mouse was administered hPYY and saline on different days following a crossover design in the nocturnal feeding paradigm. In the nocturnal paradigm, compound is administered 2 hours prior to lights out with free access to food and water throughout the entire experiment. There was at least a 4 day washout period between administration to ensure that normal feeding patterns and body weight returned. Food intake and body weight were manually measured 2, 4, and 6 hours after hPYY or saline administration. A mouse with a validated cannula placement for the TSE cage experiments consumed at least 1.0 g more after hPYY administration compared to saline administration 4 hours post-administration.
(§3) As stated above, conventional cage experiments were performed in standard mouse polycarbonate conventional cages. […] All experiments followed a cross-over paradigm in which the mouse received saline and compound on different days with a washout period in between each treatment. Statistical analysis was performed using SPSS V23 software (IBM) using a multivariate general linear model followed by a Bonferroni's post hoc test. Results are presented as Mean±SEM. Statistically significant was considered p<0.05.

[3] = tested on: male MC3RKO mice; assay: ICV administration, TSE metabolic cages, male MC3RKO mice; format: in vivo
Procedure: as §1, §2, §3
In order to more clearly understand the effects of the biased agonism at the MC4R, the effects of administration of CJL-5-58 was explored in MC3R knockout (KO) mice and MC4RKO mice. […] Adverse reactions included two mice dying after the 5 nmol dose. […] The large error in activity may serve as an indication of toxicity. It is currently difficult to decipher whether the adverse reactions observed are due to paradigm effects, genotype difference, or compound toxicity.

[4] = target: mMC4R-NanoLuc and mMC4R-HaloTag homodimer (Mus musculus, UniProt P56450); assay: NanoBRET ligand-dependent modulation of BRET signal; details: ligand at 10 μM
Procedure: On the first day, cells were plated into 6 well plates in the morning. In the afternoon of the same day, cells were transiently transfected with mMC4R-NanoLuc® fusion protein and the MC4R-HaloTag® fusion protein by adding FuGene6 Transfection (8 μL/well, Promega), DNA (2 μg/well) in OptiMem medium (Invitrogen) at a total volume of 100 μL/well. […] Cells were incubated with transfection reagent overnight at 5% CO2 at 37° C.
This provides the background signal and was subtracted from the final experimental signal. Plates were then developed 48 to 60 hours after transfection. Two hours before the plates were developed, 10 μL of a 10× aliquot of the ligand diluted in assay buffer was added to each well to yield the final in well concentration (10^−5, 10^−7, or 10^−9M) of each compound. For the assay buffer control, 10 μL of assay buffer was added instead of compound. […] The standard error of the mean (SEM) was derived from at least three independent experiments.

[5] = fasting-refeeding, time after administration
[6] = nocturnal free-feeding paradigm, 5.0 nmol ICV
[7] = nocturnal paradigm, 1 nmol dose

T1 sequence (P32245 whole entry): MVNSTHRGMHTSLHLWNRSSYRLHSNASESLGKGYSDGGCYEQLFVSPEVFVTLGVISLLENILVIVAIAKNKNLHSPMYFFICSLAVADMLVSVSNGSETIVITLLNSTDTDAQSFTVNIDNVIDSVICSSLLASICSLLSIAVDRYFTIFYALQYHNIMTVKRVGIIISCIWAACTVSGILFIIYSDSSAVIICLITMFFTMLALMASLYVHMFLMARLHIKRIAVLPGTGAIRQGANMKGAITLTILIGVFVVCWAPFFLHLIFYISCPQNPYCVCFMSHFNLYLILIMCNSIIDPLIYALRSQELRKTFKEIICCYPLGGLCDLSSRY
mMC4R-NanoLuc and mMC4R-HaloTag homodimer, sequence (P56450 whole entry): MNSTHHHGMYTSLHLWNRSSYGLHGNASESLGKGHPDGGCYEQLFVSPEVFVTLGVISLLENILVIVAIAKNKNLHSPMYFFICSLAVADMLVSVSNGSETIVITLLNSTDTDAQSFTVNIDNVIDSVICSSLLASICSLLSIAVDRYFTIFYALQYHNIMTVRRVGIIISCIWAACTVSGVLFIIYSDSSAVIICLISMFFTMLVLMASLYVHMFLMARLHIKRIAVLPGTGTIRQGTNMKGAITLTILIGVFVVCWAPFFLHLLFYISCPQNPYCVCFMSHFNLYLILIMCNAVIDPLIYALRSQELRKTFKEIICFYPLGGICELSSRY
mMC4R-NanoLuc and mMC4R-HaloTag homodimer, sequence (P56450 whole entry): as above

## CC(=O)N[C@@H](Cc1cnc[nH]1)C(=O)N[C@H](Cc1ccccc1)C(=O)N[C@@H](CCCNC(=N)N)C(=O)N[C@@H](Cc1c[nH]c2ccccc12)C(=O)NCCCOCCOCCOCCCNC(=O)COCC(=O)N[C@@H](Cc1cnc[nH]1)C(=O)N[C@H](Cc1ccc2ccccc2c1)C(=O)N[C@@H](CCCNC(=N)N)C(=O)N[C@@H](Cc1c[nH]c2ccccc12)C(N)=O [CJL-5-58, Ac-His-DPhe-Arg-Trp-(PEDG20)-His-DNal(2′)-Arg-Trp-NH2]
[1]
  cAMP agonist potency (in words): single digit nanomolar agonists
[2]; ICV 2.5 nmols and 5.0 nmols, conventional cages
  adverse effects: no signs of adverse effects
[2]; fasting-refeeding
  change in body weight vs saline, female mice: Only the 2 hour time point was significant
  change in body weight vs saline, male mice: significant difference was observed in the change in weight of the male mice after compound administration at time points 2, 4, 6, 8, and 24 hours
[2]; fasting-refeeding after 22 hour fast, ICV dose response
  food intake: dose dependent decrease in food intake; also recorded: reduce food intake
[2]; [5]
  food intake vs saline, female mice (time points of significant decrease): 2 and 4 hours
  food intake vs saline, male mice: Significant decreased food intake was observed at 2, 4, 6, and 8 hours; also recorded: Significant decreases in food intake were observed at 2, 4, 6, and 8 hours
[2]; [6]
  body weight vs saline: no statistically significant effect
  food intake vs saline: no statistically significant effect
[3]; fasting-refeeding, 0.5 nmol
  RER vs saline: significant increase in RER at time point 24 hours
[3]; fasting-refeeding, 0.5 nmols
  other parameters vs saline: No other parameters were significantly affected
[3]; fasting-refeeding, 1 nmol
  RER vs saline: significantly reduced at 2 and 3 hours
  energy expenditure vs saline: Significant reductions in energy expenditure were observed in the fasting paradigm at time points 1 and 2 hours
[3]; fasting-refeeding, 1.0 nmol
  food intake vs saline: Significant reduction in food intake was observed at 2 and 4 hour time points
[3]; fasting-refeeding, 1.0 or 0.5 nmols
  adverse reactions / toxicity: some minor signs of adverse reactions; also recorded: Some toxicity was observed
[3]; [7]
  adverse reactions: No adverse reactions were observed
  effects on measured parameters vs saline: no significant effects were observed
[3]; nocturnal paradigm, 2.5 nmol
  RER vs saline: significant increased RER was observed 18, 19, and 24 hours
  energy expenditure vs saline: significant reduced 1-8 and 13 hours post-treatment
[3]; nocturnal paradigm, 5 nmol
  energy expenditure vs saline: significantly reduced at time points 1-3 hrs
  food intake vs saline: decreased at time points 2-12 hours
[3]; nocturnal paradigm, 5 nmol dose
  number of mice dying: two
[3]; nocturnal paradigm, 5 nmols
  activity vs saline: trended towards being lowered (p=0.069)
[3]; nocturnal paradigm, 5 nmols (dose not restated for CJL-5-58)
  RER vs saline: significantly decreased at time points 1-5, 8 and 12 hours
[3]; nocturnal paradigm, 2.5 to 5 nmols
  adverse reactions / toxicity: adverse reactions were also observed at the 2.5 and 5 nmol concentrations; also recorded: Some toxicity was observed
[4]
  reduction in BRET signal compared to basal signal: ~8%
